Source: the supplement of paper PMC7840683

Test system: HepaRG
Test: LDH release cytotoxicity, % of total lysis control; higher = more cytotoxic
Conditions: 48 h
Summary of the method: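 Single-lot HepaRG cells in collagen I-coated 96-well plates were treated for 48 h in serum-free induction medium containing 0.5% DMSO with test chemicals in eight-point half-log series up to 100 µM. For total lysis, wells received 0.1% Triton X. LDH in 50 µL spent medium was assayed by resorufin fluorescence with CytoTox-ONE. Percent cytotoxicity was normalized to the on-plate vehicle and total lysis controls, with duplicates averaged.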

c1ccc2[nH]nnc2c1 [1,2,3-Benzotriazole]
Conditions | LDH release cytotoxicity [%]
0.03162 µM | -1.49
0.1 µM | -1.03
0.3162278 µM | -1.12
1 µM | -1.12
3.16228 µM | -1.23
10 µM | -0.765
31.6228 µM | 0.381
100 µM | 1.81

CC(=O)SC1CC2=CC(=O)CCC2(C)C2CCC3(C)C(CCC34CCC(=O)O4)C12 (centres undefined) [Spironolactone]
Conditions | LDH release cytotoxicity [%]
0.03162 µM | 0.148
0.1 µM | -0.279
0.3162278 µM | -1.43
1 µM | -1.93
3.16228 µM | -1.42
10 µM | -1.46
31.6228 µM | -0.441
100 µM | 13.5

CCc1nn(C2CCCCC2)c2cc(C3(C#N)CCC(C(=O)O)CC3)ccc12 (centres undefined)
Conditions | LDH release cytotoxicity [%]
0.03162 µM | -0.818
0.1 µM | -1.01
0.3162278 µM | -0.56
1 µM | -1.9
3.16228 µM | -1.26
10 µM | -1.43
31.6228 µM | 1.5
100 µM | 7.65

Cc1cc(CCN2CCN(c3nsc4ccccc34)CC2)cc2c1NC(=O)CC2(C)C
Conditions | LDH release cytotoxicity [%]
0.03162 µM | -0.898
0.1 µM | -1.13
0.3162278 µM | -0.946
1 µM | -0.828
3.16228 µM | -0.925
10 µM | -1.14
31.6228 µM | -0.566
100 µM | -0.469

S=C1NCCN1 [Ethylene thiourea]
Conditions | LDH release cytotoxicity [%]
0.03162 µM | -0.742
0.1 µM | -0.402
0.3162278 µM | -0.462
1 µM | -0.602
3.16228 µM | -0.544
10 µM | 0.0401
31.6228 µM | 0.537
100 µM | 0.155

CC12C=CC(=O)C=C1CCC1C3CC(O)C(O)(C(=O)CO)C3(C)CC(O)C12F (centres undefined) [Triamcinolone]
Conditions | LDH release cytotoxicity [%]
0.03162 µM | -1.85
0.1 µM | -0.492
0.3162278 µM | -1.39
1 µM | -1.34
3.16228 µM | -0.853
10 µM | -0.509
31.6228 µM | -0.546
100 µM | 2.9

CNC(=O)C=C(C)OP(=O)(OC)OC [Monocrotophos]
Conditions | LDH release cytotoxicity [%]
0.03162 µM | -1.04
0.1 µM | -1.87
0.3162278 µM | -1.93
1 µM | -1.17
3.16228 µM | -1.61
10 µM | -1.39
31.6228 µM | -0.305
100 µM | -0.571

O=[N+]([O-])c1cc(C(F)(F)F)c(Cl)c([N+](=O)[O-])c1Nc1ncc(C(F)(F)F)cc1Cl [Fluazinam]
Conditions | LDH release cytotoxicity [%]
0.03162 µM | -1.32
0.1 µM | -1.4
0.3162278 µM | -1.08
1 µM | -1.53
3.16228 µM | -1.12
10 µM | 0.179
31.6228 µM | 9.87
100 µM | 55.8

Clc1cccc(C(Cl)(Cl)Cl)n1 [Nitrapyrin]
Conditions | LDH release cytotoxicity [%]
0.031623 µM | -0.0337
0.1 µM | -0.859
0.316228 µM | -1.7
1 µM | -2.43
3.16228 µM | -2.02
10 µM | -1.29
31.6228 µM | -1.63
100 µM | 1.2

CC(=O)OCC1OC(OC2(COC(C)=O)OC(COC(C)=O)C(OC(C)=O)C2OC(C)=O)C(OC(C)=O)C(OC(C)=O)C1OC(C)=O (centres undefined) [Sucrose octaacetate]
Conditions | LDH release cytotoxicity [%]
0.0238752 µM | -0.662
0.0755 µM | -0.298
0.238752 µM | -0.188
0.755 µM | -1.45
2.38752 µM | -0.463
7.55 µM | -0.261
23.8752 µM | -0.0769
75.5 µM | 1.89

CCCN(C1CCN(C(=O)C2CCNCC2)CC1)C1CCc2ccc(OC)cc2C1 (centres undefined)
Conditions | LDH release cytotoxicity [%]
0.03162 µM | -0.976
0.1 µM | -1.04
0.3162278 µM | -2.19
1 µM | -1.39
3.16228 µM | -1.79
10 µM | -1.52
31.6228 µM | 0.507
100 µM | 45.7

CC(C)N(C(=O)SCC(Cl)=C(Cl)Cl)C(C)C [Tri-allate]
Conditions | LDH release cytotoxicity [%]
0.03162 µM | -0.887
0.1 µM | -0.771
0.3162278 µM | -0.223
1 µM | -0.601
3.16228 µM | -0.0707
10 µM | -0.765
31.6228 µM | 1.13
100 µM | 1.48

CN(C)C1C(=O)C(C(N)=O)C(=O)C2(O)C(=O)C3C(=O)c4c(O)cccc4C(C)(O)C3C(O)C12 (centres undefined) [Oxytetracycline dihydrate]
Conditions | LDH release cytotoxicity [%]
0.03162 µM | -2.54
0.1 µM | -1.62
0.3162278 µM | -1.71
1 µM | -1.95
3.16228 µM | -1.59
10 µM | -2.1
31.6228 µM | -3.27
100 µM | -4

O=C(NS(=O)(=O)C=Cc1ccccc1)c1ccc(F)cc1Cl
Conditions | LDH release cytotoxicity [%]
0.03162 µM | -0.138
0.1 µM | -1.32
0.3162278 µM | -0.79
1 µM | -2.23
3.16228 µM | -1.4
10 µM | -0.621
31.6228 µM | -0.552
100 µM | 1.91

CCCCCCCCN(C)C [N,N-Dimethyloctylamine]
Conditions | LDH release cytotoxicity [%]
0.031939 µM | -1.23
0.101 µM | -0.78
0.31939 µM | -2.01
1.01 µM | -1.97
3.1939004 µM | -1.09
10.1 µM | -1.35
31.939 µM | -0.557
101 µM | 2.22

Oc1ccc(C(c2ccc(O)cc2)(C(F)(F)F)C(F)(F)F)cc1 [Bisphenol AF]
Conditions | LDH release cytotoxicity [%]
0.03162 µM | -1.31
0.1 µM | -1.4
0.3162278 µM | -1.16
1 µM | -1.45
3.16228 µM | -0.575
10 µM | -1.57
31.6228 µM | -1.62
100 µM | 83.2

CCCCC(CC)COC(=O)CCCCC(=O)OCC(CC)CCCC (centres undefined) [Bis(2-ethylhexyl)hexanedioate]
Conditions | LDH release cytotoxicity [%]
0.03162 µM | -2.21
0.1 µM | -2.881
0.3162278 µM | -3.04
1 µM | -2.88
3.16228 µM | -2.66
10 µM | -2.86
31.6228 µM | -2.54
100 µM | -1.41

CCNP(=S)(OC)OC(C)=CC(=O)OC(C)C (centres undefined) [Propetamphos]
Conditions | LDH release cytotoxicity [%]
0.03162 µM | 0.305
0.1 µM | -0.308
0.3162278 µM | -1.36
1 µM | -0.42
3.16228 µM | -0.261
10 µM | 0.0856
31.6228 µM | -1.69
100 µM | 2.91
